Values after ≈ are worked out from the molar mass of the structure shown.
What was measured:
M. globosa ATCC MYA-4612 = assay: Disc-diffusion assay, perfumery materials in DMSO, M. globosa; assay type: cell-based, Malassezia globosa; conditions: Malassezia globosa, 144 h
Experimental: (§1) Anti-Malassezia effect of perfumery materials in solvent in DMSO was determined using disc-diffusion assay, based on the method of J Mycol Infect 2018: 23: 91-98. In brief, working cultures of Malassezia strains were prepared from −80 C stock culture on mDixon agar plate (for M. furfur DSM 6170) or mLN agar plate (for M. restricta ATCC MYA-4611 and M. globosa ATCC MYA-4612), and cells were suspended in 0.9% saline, and spread onto mDixon or mLN agar surface to prepare lawn plate. Test samples solutions are prepared in DMSO to final concentrations of 0.2%, 1% or 2%. Discs (Whatman, 6 mm in diameter) were placed on inoculated agar plates with each Malassezia strains respectively, including M. furfur DSM 6170, M. restricta ATCC MYA-4611, and M. globosa ATCC MYA-4612. Aliquots (20 μL) of each sample solution was added to each disc. Agar plates were incubated at 30° C. for 3 days for M. furfur DSM 6170, and 6 days for M. restricta ATCC MYA-4611, and M. globosa ATCC MYA-4612. After incubation, diameters of the clear inhibition zones around the discs were measured. Inhibition zone greater than 6 mm are regarded as having anti-Malassezia effect.

M. restricta [1] = assay: Disc-diffusion assay, additional perfumery materials in DMSO, M. restricta, 4 days; assay type: cell-based, Malassezia restricta; conditions: Malassezia restricta, 96 h; Table 20; 0.5% in DMSO, 4 days; read-out: Inhibition zone diameter (mm) on M. restricta
Experimental: Anti-Malassezia effect of additional perfumery materials in DMSO was determined using disc-diffusion assay as described previously. Test samples solutions were prepared in DMSO to final concentrations of 0.5%, 1% or 2%. Discs (Whatman, 6 mm in diameter) were placed on inoculated agar plates. Aliquots (20 μL) of each sample solution was added to each disc. Agar plates were incubated at 30° C. for 4 days. After incubation, diameters of the clear inhibition zones around the discs were recorded
Anti-Malassezia effect of additional perfumery materials in DMSO was determined using disc-diffusion assay as described above. Test samples solutions were prepared in DMSO to final concentrations of 0.5%, 1% or 2%. Discs (Whatman, 6 mm in diameter) were placed on inoculated agar plates. Aliquots (20 μL) of each sample solution was added to each disc. Agar plates were incubated at 30° C. for 4 days. After incubation, diameters of the clear inhibition zones around the discs were recorded.
Anti-Malassezia effect of additional perfumery materials in solvent in DMSO was determined using disc-diffusion assay, as described previously. Test samples solutions are prepared in DMSO to final concentrations of 0.5%. Discs (Whatman, 6 mm in diameter) were placed on inoculated agar plates. Aliquots (20 μL) of each sample solution was added to each disc. Agar plates were incubated at 30° C. for 4 days. After incubation, diameters of the clear inhibition zones around the discs were measured.

[2] = test system: M. restricta ATCC MYA-4611; assay: Disc-diffusion assay, perfumery materials in DMSO, M. restricta; assay type: cell-based, Malassezia restricta; conditions: Malassezia restricta, 144 h
Experimental: as §1

[3] = test system: Staphylococcus aureus ATCC 6538; assay: MIC assay on Staphylococcus aureus ATCC 6538; assay type: cell-based; conditions: Staphylococcus aureus, ATCC6538; TSB, 37° C., 24 h aerobically; dilutions 29 to 10000 ppm; read-out: MIC (ppm) S. aureus
Experimental: MIC assay for Staphylococcus aureus ATCC 6538 is based on Clinical Laboratory Standard Institute: CLSI/NCCLS M07-A8. Cell suspension of working cultures of S. aureus was prepared following the instructions of culture provider ATCC, USA.
(§2) A total of 26 perfumery materials were examined for an inhibition effect on Malassezia furfur and Staphylococcus aureus.

[4] = test system: Malassezia furfur DSM 6170; assay: MIC assay on Malassezia furfur DSM 6170 (resazurin); assay type: cell-based; conditions: Malassezia furfur, DSM6170; 30° C., 48 h aerobically; dilutions 29 to 10000 ppm
Experimental: The MIC assay for Malassezia furfur DSM 6170 was modified based on the method in Journal of Clinical Microbiology 2017, Vol 55: 1883-1893. In brief, working culture was prepared from stock cultures stored at −80° C. to obtain a cell suspension as the inoculum. Serial dilutions of samples, 29 to 10000 ppm, were tested to determine the MIC values for growth of Malassezia furfur DSM 6170 after at 30° C. for 48 h aerobically. Resazurin was used as growth indicator.
as §2

M. furfur DSM 6170 = assay: Disc-diffusion assay, perfumery materials in DMSO, M. furfur; assay type: cell-based, Malassezia furfur; conditions: Malassezia furfur, DSM6170, 72 h
Experimental: as §1

M. restricta [5] = assay: Disc-diffusion assay, combinations with piroctone olamine (PO) in DMSO, M. restricta; assay type: cell-based, Malassezia restricta; conditions: 4 days, ratio greater than 1.0 = boosting effect
Experimental: Anti-Malassezia effect of combinations of PO and perfumery materials in solvent DMSO against M. restricta was determined using disc-diffusion assay as described above. Aliquots (20 μL) of each sample solution was added to each disc. Agar plates were incubated at 30° C. for 4 days. After incubation, diameters of the clear inhibition zones around the discs were measured. Ratio of inhibition zone diameter of each combination to that of PO only were calculated. […] Anti-Malassezia effect of combinations of PO and perfumery raw materials mixtures in solvent DMSO was determined using disc-diffusion assay, as described above. Aliquots (20 μL) of each sample solution was added to each disc. Agar plates were incubated at 30° C. for 4 days. After incubation, diameters of the clear inhibition zones around the discs were measured. Ratio of inhibition zone diameter of each combination to that of PO only were calculated.

## CC(C=O)Cc1ccc(C(C)C)cc1 (racemic) [cyclamen aldehyde, (+/−)-3-(4-isopropylphenyl)-2-methylpropanal]
M. globosa ATCC MYA-4612
  zone of inhibition at 1 %: 6.7 mm
M. restricta [1]
  zone of inhibition at 0.5 %: 7.5 mm
[2]
  zone of inhibition at 1 %: 8.2 mm
[3]
  MIC: 933 µg/mL (≈ 4900 µM)

## CCCCCc1cc(C)ccn1 [4-methyl-2-pentylpyridine]
M. globosa ATCC MYA-4612
  zone of inhibition at 0.2 %: 6.7 mm
[4]
  MIC: 222 µg/mL (≈ 1360 µM)
[2]
  zone of inhibition at 0.2 %: 6.6 mm
[3]
  MIC: 693 µg/mL (≈ 4240 µM)
M. furfur DSM 6170
  zone of inhibition at 2 %: 6.7 mm

## c1ccc2[nH]ccc2c1 [indole]
M. globosa ATCC MYA-4612
  zone of inhibition at 0.2 %: 6.3 mm
  zone of inhibition at 1 %: 15.2 mm
[4]
  MIC: 259 µg/mL (≈ 2210 µM)
[3]
  MIC: 693 µg/mL (≈ 5920 µM)

## CCCCCCC1CCCC(=O)O1 (centres unmarked) [delta-undecalactone, 6-hexyltetrahydro-2H-pyran-2-one]
M. globosa ATCC MYA-4612
  zone of inhibition at 0.2 %: 6.4 mm
[4]
  MIC: 333 µg/mL (≈ 1810 µM)
[2]
  zone of inhibition at 0.2 %: 6.1 mm
[3]
  MIC: 293 µg/mL (≈ 1590 µM)

## CCCCCCCCCCCCO [Mix 1-dodecanol, 1-dodecanol]
M. globosa ATCC MYA-4612
  zone of inhibition at 0.2 %: 8.7 mm
  zone of inhibition at 1 %: 10.2 mm
[2]
  zone of inhibition at 0.2 %: 6.8 mm
  zone of inhibition at 1 %: 11.5 mm
[3]
  MIC: 22 µg/mL (≈ 118 µM)

## CCCCCCCCC1CCC(=O)O1 (racemic) [gamma-dodecalactone, (+/−)-5-octyldihydro-2(3h)-furanone]
M. globosa ATCC MYA-4612
  zone of inhibition at 0.2 %: 6.3 mm
[4]
  MIC: 148 µg/mL (≈ 746 µM)
[3]
  MIC: 173 µg/mL (≈ 872 µM)
M. furfur DSM 6170
  zone of inhibition at 2 %: 6.9 mm

## COC(=O)c1c(C)cc(O)c(C)c1O [methyl 2,4-dihydroxy-3,6-dimethylbenzoate]
M. globosa ATCC MYA-4612
  zone of inhibition at 0.2 %: 7.4 mm
  zone of inhibition at 2 %: 9.2 mm
[4]
  MIC: 290 µg/mL (≈ 1480 µM)
[2]
  zone of inhibition at 0.2 %: 6.3 mm
  zone of inhibition at 2 %: 12 mm
[3]
  MIC: 111 µg/mL (≈ 566 µM)
M. furfur DSM 6170
  zone of inhibition at 2 %: 7 mm

## CCCCCCCCCC(=O)O [decanoic acid]
M. restricta [5]
  Ratio of inhibition zone diameter (1% PRM + 0.35% PO) to 0.35% PO: 1.1

## CCCCCCC#CC(=O)OC [methyl octine carbonate, methyl 2-nonynoate]
M. globosa ATCC MYA-4612
  zone of inhibition at 1 %: 10.3 mm
[2]
  zone of inhibition at 0.2 %: 6.4 mm
  zone of inhibition at 1 %: 6.7 mm

## CC(C=O)Cc1ccc(C(C)(C)C)cc1 (racemic) [lilial, (+/−)-2-methyl-3-[4-(2-methyl-2-propanyl)phenyl]propanal]
M. globosa ATCC MYA-4612
  zone of inhibition at 1 %: 7.4 mm
[3]
  MIC: 325 µg/mL (≈ 1590 µM)

## CCCCC(CC)CO (centres unmarked) [2-ethyl-1-hexanol]
M. globosa ATCC MYA-4612
  zone of inhibition at 1 %: 6.7 mm
[4]
  MIC: 44 µg/mL (≈ 338 µM)
[2]
  zone of inhibition at 1 %: 6.4 mm
[3]
  MIC: 867 µg/mL (≈ 6660 µM)
M. furfur DSM 6170
  zone of inhibition at 2 %: 7.6 mm

## CCCCCCCCC(=O)O [nonanoic acid]
M. restricta [5]
  Ratio of inhibition zone diameter (0.5% PRM + 0.1% PO) to 0.1% PO: 1.1
  Ratio of inhibition zone diameter (1% PRM + 0.35% PO) to 0.35% PO: 1.2

## COc1ccc(C=O)cc1 [para-anisaldehyde, 4-methoxybenzaldehyde]
[4]
  MIC: 500 µg/mL (≈ 3670 µM)
[2]
  zone of inhibition at 2 %: 13.4 mm

## C=CCCCCCCCCC=O [Mix 10-undecenal, 10-undecenal]
M. globosa ATCC MYA-4612
  zone of inhibition at 0.2 %: 7.1 mm
  zone of inhibition at 1 %: 14.1 mm
[2]
  zone of inhibition at 0.2 %: 6.5 mm
  zone of inhibition at 1 %: 12.7 mm

## CC(C)(C)c1ccc(CCC=O)cc1 [cyclamen propanal, 3-(4-tert-butylphenyl)propanal]
M. globosa ATCC MYA-4612
  zone of inhibition at 0.2 %: 6.3 mm
  zone of inhibition at 2 %: 7.9 mm
[2]
  zone of inhibition at 0.2 %: 6.6 mm
  zone of inhibition at 2 %: 12.3 mm

## CCCCCCO [Mix 1-hexanol, 1-hexanol]
[2]
  zone of inhibition at 1 %: 6.7 mm

## CCCCCCCCCCO [Mix 1-decanol, 1-decanol]
M. globosa ATCC MYA-4612
  zone of inhibition at 0.2 %: 6.7 mm
  zone of inhibition at 1 %: 15.9 mm
  zone of inhibition at 2 %: 16.4 mm
[4]
  MIC: 500 µg/mL (≈ 3160 µM)
[2]
  zone of inhibition at 0.2 %: 8.5 mm
  zone of inhibition at 1 %: 10 mm
  zone of inhibition at 2 %: 25 mm
[3]
  MIC: 370 µg/mL (≈ 2340 µM)

## CCCCCCCC(=O)O [octanoic acid]
M. restricta [5]
  Ratio of inhibition zone diameter (1% PRM + 0.35% PO) to 0.35% PO: 1.1

## COc1ccc(CC(C)C=O)cc1 (racemic) [para-anisyl propanal, (+/−)-3-(4-methoxyphenyl)-2-methylpropanal]
M. globosa ATCC MYA-4612
  zone of inhibition at 1 %: 11.6 mm
[4]
  MIC: 222 µg/mL (≈ 1250 µM)
[2]
  zone of inhibition at 0.2 %: 6.6 mm
  zone of inhibition at 1 %: 14.3 mm
[3]
  MIC: 530 µg/mL (≈ 2970 µM)
M. restricta [5]
  Ratio of inhibition zone diameter (0.5% PRM + 0.1% PO) to 0.1% PO: 2.0
  Ratio of inhibition zone diameter (1% PRM + 0.35% PO) to 0.35% PO: 1.5

## CC(C)C1CCC(CO)CC1 (centres unmarked) [p-menthan-7-ol]
M. globosa ATCC MYA-4612
  zone of inhibition at 0.2 %: 6.5 mm
[4]
  MIC: 222 µg/mL (≈ 1420 µM)
[2]
  zone of inhibition at 0.2 %: 6.7 mm
[3]
  MIC: 625 µg/mL (≈ 4000 µM)
M. furfur DSM 6170
  zone of inhibition at 2 %: 6.3 mm

## CCOC(=O)C(C)CC (racemic) [ethyl 2-methyl butanoate, (+/−)-ethyl 2-methylbutanoate]
M. globosa ATCC MYA-4612
  zone of inhibition at 1 %: 6.6 mm

## CC(C)c1cccc(C(C)CC=O)c1 (racemic) [floral butanal, (+/−)-3-(3-isopropylphenyl)butanal]
M. restricta [1]
  zone of inhibition at 0.5 %: 7.5 mm
[4]
  MIC: 1300 µg/mL (≈ 6830 µM)
[2]
  zone of inhibition at 1 %: 8.2 mm
[3]
  MIC: 387 µg/mL (≈ 2030 µM)

## CCCCC[C@H]1C(=O)CC[C@@H]1CC(=O)OC (racemic) [methyl dihydrojasmonate, methyl 2-((1 RS,2RS)-3-oxo-2-pentylcyclopentyl)acetate]
[4]
  MIC: 222 µg/mL (≈ 981 µM)
[2]
  zone of inhibition at 0.2 %: 6.1 mm
[3]
  MIC: 330 µg/mL (≈ 1460 µM)

## CCOc1cc(C=O)ccc1O [ethyl vanillin, 3-ethoxy-4-hydroxybenzaldehyde]
[4]
  MIC: 500 µg/mL (≈ 3010 µM)
[2]
  zone of inhibition at 2 %: 19.5 mm
[3]
  MIC: 2670 µg/mL (≈ 16000 µM)

Source: patent US20260207450A1, “ANTI-DANDRUFF COMPOSITIONS” (Firmenich SA, priority 2022, published 2026)
